In experiment [1] the test system is K562 erythroleukemia cells transduced with shRPS19. In words: Autophagy induction (p62, LC3-I, LC3-II protein levels) in K562 cells transduced with shRPS19. Particulars: 5-FU 100 nM. It is filed as cell-based, human. The method, then: (FIG. 13A) Induction of autophagy by SMER28 (40 μM) monitored by protein levels of p62, LC3-I, and LC3-II after 24 hours. Cells were also treated with 5-FU (100 nM) to induce autophagy, or inhibitor of transcription actinomycin D (ActD; 100 nM). (FIG. 13B) Induction of autophagy by SMER28 (40 μM) monitored by protein levels of p62, LC3-I, and LC3-II after 24 hours treatment with or without lysosomal blockade with bafilomycin A (200 nM for 4 hours). Untreated samples are shown at higher exposure, to capture dynamic changes in the LC3-II levels. Rapamycin (200 nM) is a positive control. LC3-II levels relative to GAPDH are quantitated on the right. (FIG. 13C) Erythroid differentiation of CD34-5F cells transduced with shRNAs for luciferase (LUC) or ATG5±SMER28. Representative flow plots and quantitation showing the number of erythroid cells induced by SMER28 (10 μM) normalized to DMSO. 2 control luciferase shRNAs and 2 ATG5 shRNAs are included (knockdown efficiency in hematopoietic cells of 58% and 50%, respectively), each with 2 independent lines; p=0.005, 3 independent experiments. (FIG. 13D) Atg5 deficiency causes anemia in zebrafish. Wild-type zebrafish embryos were treated with 1.6 ng atg5 or missense morpholino, and hemoglobin staining was visualized with benzidine staining at 40 hpf with SMER28 (1 μM). Representative images (left), and quantitation (right) with embryos grouped by high, medium, and low levels of benzidine staining.
SMER28 was identified as an mTOR-independent inducer of autophagy, by synergizing with rapamycin to promote clearance of protein aggregates in models of neurodegenerative disease (Sarkar et al., 2007; Tian et al., 2011). Autophagy is a pro-survival pathway induced by a variety of stresses, such as nutrient limitation or protein aggregation. Autophagy is required for clearance of mitochondria during terminal erythroid maturation (Mortensen and Simon, 2010), but has not been linked with earlier stages of erythropoiesis. To determine if SMER28 modulates autophagy in erythroid cells, we interrogated the levels of p62 and LC3 in K562 erythroleukemia cells transduced with shRPS19. SMER28 reduced p62 and increased the levels of […] LC3-II isoform associated with autophagosomes (FIG. 13A). […] To measure autophagic flux, we monitored LC3-II levels after blocking lysosomal fusion with bafilomycin A. SMER28 increased LC3-II levels following lysosomal blockade, similarly to the mTOR inhibitor rapamycin (FIG. 13B).
Drug treatments. SMER28 was purchased from Tocris and diluted in 10 mM aliquots in DMSO. The final concentration for CD34-5F and CB CD34^+erythroid treatments was 0.2-10 μM as indicated in the text. The final concentration for K562 cell treatments was 20-40 μM. […]

Experiment [2] concerns CD71+ cells in a erythroid cell population. In words: Percentage of CD71+ cells in an erythroid cell population in vitro. It is filed as cell-based. The note with it: between 5-20 μM in vitro. The text has this: Accordingly, in some embodiments, an autophagy activator as disclosed herein can be administered to a subject according to the methods as disclosed herein in an effective dose to increase the levels of CD71+ cells in an erythroid cell population obtained from the subject by at least about 1%, at least about 2%, at least about 3%, at least about 5%, at least about 10%, at least about 15%, least about 20%, at least about 30%, at least about 40%, at least about 50%, or more than 50%, as compared to in the absence of an autophagy activator.

The test system of another experiment is CB CD34+ cells. It is filed as in vivo, NSG mice. The note with it: 1 mg/kg Dex (sodium-phosphate) for 4 weeks; p=0.04. As to the method:
(FIG. 10A) SMER28 rescues RBC output in rps29^+/− zebrafish embryos. The level of hemoglobin in the yolk sac was visualized 40hpf with benzidine staining. Images are representative of the proportion of embryos indicated (of total counted). (FIG. 10B) Quantitation of SMER28 rescue for a range of 0.1-1 μM, with embryos grouped by high, medium, and low levels of hemoglobin staining. (FIG. 10C) Peripheral blood (PB) RBC counts and hematocrit in mice with irradiation-induced anemia. Mice were treated with the PEG400-based vehicle containing DMSO (VEH) (n=11), 1 mg/kg Dex (sodium-phosphate) (n=13), or 10 mg/kg SMER28 (n=9) for 3 weeks, bled, and assessed. Data are combined from 3 independent experiments. (FIG. 10D) Erythroid cells as proportion of the human graft in mice transplanted with DBA CD34-5F progenitors, and treated as in (FIG. 1c). (FIG. 10E) Levels of human engraftment in NSG mouse bone marrow (BM) transplanted with CB CD34^+ cells. Mice were treated with DMSO plus vehicle (VEH) (n=10), 1 mg/kg Dex (sodium-phosphate) (n=6), or 2 mg/kg SMER28 (n=11) for 4 weeks. (FIG. 10F) The proportion of erythroid, myeloid, and lymphoid (B cells) lineages within the human graft in vehicle- and SMER28-treated mice transplanted with CB CD34^+ cells. Only the effect on the erythroid lineage was significant. Data in FIGS. 10E-10G are pooled from 2 independent experiments. For all panels, *p<0.05, * *p<0.01.
Drug treatments. SMER28 was purchased from Tocris and diluted in 10 mM aliquots in DMSO. The final concentration for CD34-5F and CB CD34^+erythroid treatments was 0.2-10 μM as indicated in the text. The final concentration for K562 cell treatments was 20-40 μM. Ferric citrate (1-50 μM) and deferoxamine (100-200 μM) (Sigma) were dissolved in PBS and added on days 0-4 of “expansion” culture, and washed off prior to erythroid stage I (days 4-9) differentiation. For in vivo experiments, SMER28 aliquots were diluted in vehicle solution: 30% PEG-400, 5% propylene glycol, and 0.5% Tween-80. Dosing for human xenograft experiments was 2 mg/kg; for mouse models 10-20 mg/kg. Dexamethasone was purchased as Dex-sodium phosphate (DexSP) water-soluble formulation (Santa Cruz), and diluted in PBS vehicle (1 mg/kg). NSG mice were sub-lethally irradiated at 275 rads, and administered 100 μl of drug or vehicle by oral gavage daily.

Each structure is given as a SMILES string.

`O=c1[nH]cc(F)c(=O)[nH]1` [5-fluorouracil, reference compound]: in experiment [1], the “conversion of cytosolic LC3-I into LC3-II” value is on record as “induced”.

`CN1CCN(CCCN2c3ccccc3Sc3ccc(C(F)(F)F)cc32)CC1` [TFP]: in experiment [2], the “percentage of CD71+ cells” value is given as “restored”. Take `C[C@@H]1C[C@H]2[C@@H]3CCC4=CC(=O)C=C[C@]4(C)[C@@]3(F)[C@@H](O)C[C@]2(C)[C@@]1(O)C(=O)CO` [Dex, Dexamethasone, reference compound]: the “RBC output as proportion of human graft” value in the experiment with CB CD34+ cells is reported as 10.4%.

(Values after patent US11980620B2, “Compounds and methods for treatment of Diamond Blackfan anemia” (THE CHILDREN'S MEDICAL CENTER CORPORATION, priority 2017, dated 2024).)
